According to ChEMBL document CHEMBL4411308, “Design, synthesis and biological evaluation of novel benzo- and tetrahydrobenzo-[h]quinoline derivatives as potential DNA-intercalating antitumor agents” (Eur J Med Chem, 2019):

How the values were obtained:
A549 [1] = assay: Cytotoxicity against human A549 cells assessed as inhibition of cell proliferation after 48 hrs by MTT assay; type: functional, cell-based; settings: A549, 48 h
MCF7 = assay: Cytotoxicity against human MCF7 cells assessed as inhibition of cell proliferation after 48 hrs by MTT assay; type: functional, cell-based; settings: MCF7, 48 h
A2780 = assay: Cytotoxicity against human A2780 cells assessed as inhibition of cell proliferation after 48 hrs by MTT assay; type: functional, cell-based; settings: A2780, 48 h
Calf thymus DNA [2] = assay: Binding affinity to calf thymus DNA by fluorescence spectroscopic method; type: nucleic-acid assay; settings: Bos taurus
Calf thymus DNA [3] = assay: Binding affinity to calf thymus DNA by UV-vis absorption spectrophotometric method; type: nucleic-acid assay; settings: Bos taurus
[4] = Cytotoxicity against mouse C26 cells assessed as inhibition of cell proliferation after 48 hrs by MTT assay; type: functional, cell-based; settings: C26, 48 h
A549 [5] = assay: Induction of apoptosis in human A549 cells assessed as late apoptotic cells at 1 uM after 24 hrs by Annexin V-FITC/propidium iodide staining based flow cytometry (reference value: 0.462%); type: functional
A549 [6] = assay: Induction of apoptosis in human A549 cells assessed as live cells at 1 uM after 24 hrs by Annexin V-FITC/propidium iodide staining based flow cytometry (reference value: 98.4%); type: functional
A549 [7] = assay: Induction of apoptosis in human A549 cells assessed as necrotic cells at 1 uM after 24 hrs by Annexin V-FITC/propidium iodide staining based flow cytometry (reference value: 0.231%); type: functional
A549 [8] = assay: Induction of apoptosis in human A549 cells assessed as early apoptotic cells at 1 uM after 24 hrs by Annexin V-FITC/propidium iodide staining based flow cytometry (reference value: 0.886%); type: functional
A549 [9] = assay: Induction of apoptosis in human A549 cells assessed as necrotic cells at 5 uM after 24 hrs by Annexin V-FITC/propidium iodide staining based flow cytometry (reference value: 0.231%); type: functional
A549 [10] = assay: Induction of apoptosis in human A549 cells assessed as late apoptotic cells at 10 uM after 24 hrs by Annexin V-FITC/propidium iodide staining based flow cytometry (reference value: 0.462%); type: functional
A549 [11] = assay: Induction of apoptosis in human A549 cells assessed as live cells at 10 uM after 24 hrs by Annexin V-FITC/propidium iodide staining based flow cytometry (reference value: 98.4%); type: functional
A549 [12] = assay: Induction of apoptosis in human A549 cells after 24 hrs by Annexin V-FITC/propidium iodide staining based flow cytometry; type: functional, cell-based
A549 [13] = assay: Induction of apoptosis in human A549 cells assessed as necrotic cells at 10 uM after 24 hrs by Annexin V-FITC/propidium iodide staining based flow cytometry (reference value: 0.231%); type: functional
A549 [14] = assay: Induction of apoptosis in human A549 cells assessed as early apoptotic cells at 10 uM after 24 hrs by Annexin V-FITC/propidium iodide staining based flow cytometry (reference value: 0.886%); type: functional
A549 [15] = assay: Induction of apoptosis in human A549 cells assessed as live cells at 5 uM after 24 hrs by Annexin V-FITC/propidium iodide staining based flow cytometry (reference value: 98.4%); type: functional
A549 [16] = assay: Induction of apoptosis in human A549 cells assessed as late apoptotic cells at 5 uM after 24 hrs by Annexin V-FITC/propidium iodide staining based flow cytometry (reference value: 0.462%); type: functional
A549 [17] = assay: Induction of apoptosis in human A549 cells assessed as early apoptotic cells at 5 uM after 24 hrs by Annexin V-FITC/propidium iodide staining based flow cytometry (reference value: 0.886%); type: functional

| Compound | IC50 (A549 [1]) [µM] | IC50 (MCF7) [µM] | IC50 (A2780) [µM] | IC50 [4] [µM] | other results |
| --- | --- | --- | --- | --- | --- |
| COc1ccc(-c2cc(C(=O)NCCN(C)C)c3ccc4ccccc4c3n2)cc1 | 20.2 | 37.4 | 14.2 | 2.41 | Kb (Calf thymus DNA [2]): 7.4 ×10⁴ No_unit; Kb (Calf thymus DNA [3]): 2 ×10⁴ No_unit |
| CC(=O)Nc1ccc(-c2cc(C(=O)NCCN(C)C)c3ccc4ccccc4c3n2)cc1 | 7.98 | 4.05 | 9.34 | 7.71 |  |
| COc1cccc2c1C(=O)c1c(O)c3c(c(O)c1C2=O)C[C@@](O)(C(=O)CO)C[C@@H]3O[C@H]1C[C@H](N)[C@H](O)[C@H](C)O1 [DOXORUBICIN] | 0.766 | 0.5 | 0.123 |  | Activity (A549 [5]): 11.1%; Activity (A549 [6]): 31%; Activity (A549 [7]): 55.8%; Activity (A549 [8]): 2.19% |
| COc1cc(-c2cc(C(=O)NCCN(C)C)c3ccc4c(c3n2)CCCC4)cc(OC)c1OC | 14.5 | 5.62 | 11 | 11.6 |  |
| COc1ccc(-c2cc(C(=O)NCCN(C)C)c3ccc4c(c3n2)CCCC4)cc1 | 4.96 | 6.3 | 1.65 | 7.19 |  |
| CN(C)CCNC(=O)c1cc(-c2ccc(F)cc2)nc2c1ccc1ccccc12 | 18.4 | 16.6 | 14.3 | 5.29 |  |
| CN(C)CCNC(=O)c1cc(-c2ccc(F)cc2)nc2c3c(ccc12)CCCC3 | 13.6 | 12.9 | 6.16 | 18.4 |  |
| CN(C)CCNC(=O)c1cc(-c2ccccc2)nc2c1ccc1ccccc12 | 65.7 | 33.3 | 72.6 | 35.6 |  |
| CN(C)CCNC(=O)c1cc(-c2ccccn2)nc2c1ccc1ccccc12 | 56.2 | > 100 | 61.2 | 39.3 |  |
| CN(C)CCNC(=O)c1cc(-c2ccccn2)nc2c3c(ccc12)CCCC3 | 60.1 | 16.6 | 14.8 | 50 |  |
| CC(=O)Nc1ccc(-c2cc(C(=O)NCCN(C)C)c3ccc4c(c3n2)CCCC4)cc1 | 1.9 | 2.69 | 1.86 | 3.91 | Activity (A549 [9]): 1.22%; Activity (A549 [10]): 0.34%; Activity (A549 [11]): 53%; Activity (A549 [12]): Dose-dependent effect; Activity (A549 [13]): 0.34%; Activity (A549 [14]): 46.4%; Kb (Calf thymus DNA [3]): 2 ×10⁴ No_unit; Activity (A549 [15]): 63.7%; Activity (A549 [16]): 7.58%; Activity (A549 [17]): 27.5% |
| COc1ccc(-c2cc(C(=O)NCCN(C)C)c3ccc4c(c3n2)CCCC4)cc1OC | 15.4 | 13.8 | 11.5 | 12.7 |  |
| Cc1ccc(-c2cc(C(=O)NCCN(C)C)c3ccc4ccccc4c3n2)cc1 | 5.89 | 1.51 | 9.08 | 3.62 | Activity (A549 [9]): 0.2%; Activity (A549 [10]): 0.08%; Activity (A549 [11]): 75.1%; Activity (A549 [12]): Dose-dependent effect; Activity (A549 [13]): 0.22%; Activity (A549 [14]): 24.6%; Kb (Calf thymus DNA [2]): 8.1 ×10⁴ No_unit; Kb (Calf thymus DNA [3]): 2.2 ×10⁴ No_unit; Activity (A549 [15]): 94.1%; Activity (A549 [16]): 0.18%; Activity (A549 [17]): 5.48% |
| Cc1ccc(-c2cc(C(=O)NCCN(C)C)c3ccc4c(c3n2)CCCC4)cc1 | 3.89 | 2.29 | 2.13 | 2.33 | Activity (A549 [9]): 1.02%; Activity (A549 [10]): 0.72%; Activity (A549 [11]): 54.9%; Activity (A549 [12]): Dose-dependent effect; Activity (A549 [13]): 0.01%; Activity (A549 [14]): 44.4%; Kb (Calf thymus DNA [2]): 6.4 ×10⁴ No_unit; Kb (Calf thymus DNA [3]): 1.75 ×10⁴ No_unit; Activity (A549 [15]): 97.8%; Activity (A549 [16]): 0.093%; Activity (A549 [17]): 1.13% |
